# Reference: patent US6387850B1, “Pesticide composition and method” (Application Technologies, Inc., priority 1998, dated 2002)
# What was measured:
# Assay in all cases: Field weed control in glyphosate-tolerant soybeans, visual rating
# Format in all cases: in vivo
# Conditions in all cases: 23 days after application, scale 0 = no, 10 = complete weed control
# [1] = system: volunteer corn (Zea mays)
# Source text: (§1) Materials and Methods: Applications were made to glyphosate-tolerant soybeans on Jun. 10, 1998. Weed species present ranging in height from 5 to 20 cm included giant foxtail (Setaria faberii), barnyard grass (Echinochloa crus-galli), volunteer corn (Zea mays) and yellow foxtail (Setaria glauca) Treatments were applied using Spraying Systems Turbo TeeJet TT-11002 nozzles spaced 50 cm apart on the spray boom at 207 kPa spray pressure resulting in a spray volume application of […] liters per hectare.
# (§2) Spray solutions consisted of two comparison levels of mineral hardness as measured by TDS in ppm. The original solution consisted of 10 ppm. The second solution measuring 400 ppm was established using calcium chloride at approximately 227 grams per 378 liters.
# (§3) Herbicide applications of glyphosate in form of Roundup Ultra® (Monsanto Company) formulation were applied at four rates: 26, 53, 105 and 210 grams of acid equivalent per hectare (g ae/ha) A spray adjuvant, Array® at 4 kilograms per 378 liters of spray solution was added to the spray solution prior to the addition of the herbicide. Array was evaluated across herbicide and spray solution treatments. Array consists of a micro-homogenized combination of AMS (ammonium sulfate) fertilizer at 94.4% analysis 21-0-0-24 (nitrogen-phosphorus-potassium-sulfur) and DR 2000 (Rhodia Surfactants) at 5.6%, a short-chain guar-based polymer.
# [2] = system: yellow foxtail (Setaria glauca)
# Source text: as §1, §2, §3
# [3] = system: giant foxtail (Setaria faberii)
# Source text: as §1, §2, §3
# [4] = system: barnyard grass (Echinochloa crus-galli)
# Source text: as §1, §2, §3
# [5] = 26 g ae/ha, solution TDS 10 ppm, Array 4 kg/378 L Yes
# [6] = 26 g ae/ha, solution TDS 10 ppm, Array No
# [7] = 26 g ae/ha, solution TDS 400 ppm, Array 4 kg/378 L Yes
# [8] = 26 g ae/ha, solution TDS 400 ppm, Array No
# [9] = 53 g ae/ha, solution TDS 10 ppm, Array 4 kg/378 L Yes
# [10] = 53 g ae/ha, solution TDS 10 ppm, Array No
# [11] = 53 g ae/ha, solution TDS 400 ppm, Array 4 kg/378 L Yes
# [12] = 53 g ae/ha, solution TDS 400 ppm, Array No
# [13] = 105 g ae/ha, solution TDS 10 ppm, Array 4 kg/378 L Yes
# [14] = 105 g ae/ha, solution TDS 10 ppm, Array No
# [15] = 105 g ae/ha, solution TDS 400 ppm, Array 4 kg/378 L Yes
# [16] = 105 g ae/ha, solution TDS 400 ppm, Array No
# [17] = 210 g ae/ha, solution TDS 10 ppm, Array 4 kg/378 L Yes
# [18] = 210 g ae/ha, solution TDS 10 ppm, Array No
# [19] = 210 g ae/ha, solution TDS 400 ppm, Array 4 kg/378 L Yes
# [20] = 210 g ae/ha, solution TDS 400 ppm, Array No
smiles,measurement,setting,value
"O=C(O)CNCP(=O)(O)O [Glyphosate, glyphosate]","Visual rating of weed control, Volunteer Corn",[1]; [5],2
same,"Visual rating of weed control, Volunteer Corn",[1]; [6],1
same,"Visual rating of weed control, Volunteer Corn",[1]; [7],1
same,"Visual rating of weed control, Volunteer Corn",[1]; [8],0
same,"Visual rating of weed control, Volunteer Corn",[1]; [9],4
same,"Visual rating of weed control, Volunteer Corn",[1]; [10],3
same,"Visual rating of weed control, Volunteer Corn",[1]; [11],2
same,"Visual rating of weed control, Volunteer Corn",[1]; [12],1
same,"Visual rating of weed control, Volunteer Corn",[1]; [13],8
same,"Visual rating of weed control, Volunteer Corn",[1]; [14],5
same,"Visual rating of weed control, Volunteer Corn",[1]; [15],3
same,"Visual rating of weed control, Volunteer Corn",[1]; [16],2
same,"Visual rating of weed control, Volunteer Corn",[1]; [17],10
same,"Visual rating of weed control, Volunteer Corn",[1]; [18],9
same,"Visual rating of weed control, Volunteer Corn",[1]; [19],6
same,"Visual rating of weed control, Volunteer Corn",[1]; [20],5
same,"Visual rating of weed control, Yellow Foxtail",[2]; [5],2
same,"Visual rating of weed control, Yellow Foxtail",[2]; [6],2
same,"Visual rating of weed control, Yellow Foxtail",[2]; [7],1
same,"Visual rating of weed control, Yellow Foxtail",[2]; [8],0
same,"Visual rating of weed control, Yellow Foxtail",[2]; [9],4
same,"Visual rating of weed control, Yellow Foxtail",[2]; [10],3
same,"Visual rating of weed control, Yellow Foxtail",[2]; [11],2
same,"Visual rating of weed control, Yellow Foxtail",[2]; [12],1
same,"Visual rating of weed control, Yellow Foxtail",[2]; [13],7
same,"Visual rating of weed control, Yellow Foxtail",[2]; [14],5
same,"Visual rating of weed control, Yellow Foxtail",[2]; [15],3
same,"Visual rating of weed control, Yellow Foxtail",[2]; [16],2
same,"Visual rating of weed control, Yellow Foxtail",[2]; [17],9
same,"Visual rating of weed control, Yellow Foxtail",[2]; [18],8
same,"Visual rating of weed control, Yellow Foxtail",[2]; [19],5
same,"Visual rating of weed control, Yellow Foxtail",[2]; [20],5
same,"Visual rating of weed control, Giant Foxtail",[3]; [5],3
same,"Visual rating of weed control, Giant Foxtail",[3]; [6],2
same,"Visual rating of weed control, Giant Foxtail",[3]; [7],1
same,"Visual rating of weed control, Giant Foxtail",[3]; [8],0
same,"Visual rating of weed control, Giant Foxtail",[3]; [9],4
same,"Visual rating of weed control, Giant Foxtail",[3]; [10],3
same,"Visual rating of weed control, Giant Foxtail",[3]; [11],2
same,"Visual rating of weed control, Giant Foxtail",[3]; [12],1
same,"Visual rating of weed control, Giant Foxtail",[3]; [13],8
same,"Visual rating of weed control, Giant Foxtail",[3]; [14],6
same,"Visual rating of weed control, Giant Foxtail",[3]; [15],3
same,"Visual rating of weed control, Giant Foxtail",[3]; [16],2
same,"Visual rating of weed control, Giant Foxtail",[3]; [17],10
same,"Visual rating of weed control, Giant Foxtail",[3]; [18],9
same,"Visual rating of weed control, Giant Foxtail",[3]; [19],6
same,"Visual rating of weed control, Giant Foxtail",[3]; [20],5
same,"Visual rating of weed control, Barnyard Grass",[4]; [5],3
same,"Visual rating of weed control, Barnyard Grass",[4]; [6],2
same,"Visual rating of weed control, Barnyard Grass",[4]; [7],1
same,"Visual rating of weed control, Barnyard Grass",[4]; [8],0
same,"Visual rating of weed control, Barnyard Grass",[4]; [9],5
same,"Visual rating of weed control, Barnyard Grass",[4]; [10],4
same,"Visual rating of weed control, Barnyard Grass",[4]; [11],2
same,"Visual rating of weed control, Barnyard Grass",[4]; [12],1
same,"Visual rating of weed control, Barnyard Grass",[4]; [13],7
same,"Visual rating of weed control, Barnyard Grass",[4]; [14],5
same,"Visual rating of weed control, Barnyard Grass",[4]; [15],3
same,"Visual rating of weed control, Barnyard Grass",[4]; [16],2
same,"Visual rating of weed control, Barnyard Grass",[4]; [17],10
same,"Visual rating of weed control, Barnyard Grass",[4]; [18],9
same,"Visual rating of weed control, Barnyard Grass",[4]; [19],6
same,"Visual rating of weed control, Barnyard Grass",[4]; [20],5
